Source: patent US11198713B2, “Agents modulating beta-catenin functions and methods thereof” (FOG PHARMACEUTICALS, INC., priority 2017, dated 2021)
Numbered stars: 1 amine (or outer) side, 2 acyl side, 3 side chain; on linkers, the order of the positions; unused ones are H or OH. Bridge positions count the residues as written; N and C are the ends. Square brackets hold non-standard residues; d marks the D form. Peptide text beside a SMILES is read from it. X10 = CN(CC=[*:3])C[C@@](C)(N[*:1])C(=O)[*:2]; S8 = C=CCCCCCC[C@](C)(N)C(=O)O

Target: T1, full-length beta-catenin (Axin site) (Homo sapiens, UniProt P35222)
T1 construct: 15 nM full-length beta-catenin, 20 nM FITC labeled peptide in buffer
T1 sequence (P35222 1-781): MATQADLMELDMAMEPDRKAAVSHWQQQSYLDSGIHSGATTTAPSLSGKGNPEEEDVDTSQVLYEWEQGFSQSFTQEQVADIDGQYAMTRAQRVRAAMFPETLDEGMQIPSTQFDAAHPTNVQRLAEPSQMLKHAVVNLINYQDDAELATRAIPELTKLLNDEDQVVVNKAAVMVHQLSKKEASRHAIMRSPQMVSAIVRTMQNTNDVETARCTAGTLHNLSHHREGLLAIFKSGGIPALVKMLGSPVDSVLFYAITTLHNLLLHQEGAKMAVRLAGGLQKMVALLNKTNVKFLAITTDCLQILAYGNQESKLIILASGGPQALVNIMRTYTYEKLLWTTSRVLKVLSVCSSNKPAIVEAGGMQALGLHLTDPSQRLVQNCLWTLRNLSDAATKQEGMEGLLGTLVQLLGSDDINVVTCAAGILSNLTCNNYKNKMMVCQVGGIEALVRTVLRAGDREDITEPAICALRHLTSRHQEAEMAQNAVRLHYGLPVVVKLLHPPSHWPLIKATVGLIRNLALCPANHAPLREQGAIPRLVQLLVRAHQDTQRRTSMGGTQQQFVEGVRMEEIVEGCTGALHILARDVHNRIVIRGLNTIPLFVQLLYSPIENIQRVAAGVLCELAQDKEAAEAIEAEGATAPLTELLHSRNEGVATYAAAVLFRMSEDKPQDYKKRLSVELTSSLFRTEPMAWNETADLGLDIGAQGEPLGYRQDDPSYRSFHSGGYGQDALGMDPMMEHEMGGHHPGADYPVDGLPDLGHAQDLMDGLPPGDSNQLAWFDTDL
Assay: Competition fluorescence polarization assay (Axin site probe)
Assay type: binding
Conditions: competition fluorescence polarization, Table 2; read-out: in vitro FP EC50
Outline: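 Competition FP: 15 nM full-length β-catenin pre-incubated 5 min with 20 nM FITC-labelled stapled Axin-site peptide, then titrated peptide added (3-fold series from 5 μM) for 15 min in the dark. Buffer 50 mM Tris pH 8.0, 250 mM NaCl, 2% glycerol, 0.5 mM EDTA; duplicate reads.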

SMILES | EC50 [nM]
CC[C@H](C)[C@@H]1NC(=O)[C@H](Cc2ccccn2)NC(=O)[C@H](C)NC(=O)[C@H](CC(=O)O)NC(=O)[C@H](CC(C)C)NC(=O)[C@H]([C@@H](C)CC)NC(=O)[C@](C)(NC(=O)[C@H](C)NC(C)=O)CCCCCCC=CCOC(=O)N2CC[C@@](C(=O)N[C@@H](Cc3ccco3)C(=O)N[C@H](C(=O)N[C@@H](Cc3c[nH]c4ccccc34)C(N)=O)C(C)C)(C2)NC1=O (single isomer, unassigned) [FP0569c Isomer 2, Ac-A-R8-I-L-D-A-2pyr-I-MB-fur-V-W-NH2] | > 5000
CC[C@H](C)[C@@H]1NC(=O)[C@H](Cc2ccccn2)NC(=O)[C@H](C)NC(=O)[C@H](CC(=O)O)NC(=O)[C@H](CC(C)C)NC(=O)[C@H]([C@@H](C)CC)NC(=O)[C@](C)(NC(=O)[C@H](C)NC(C)=O)CCCCCCC=CCOC(=O)N2CC[C@@](C(=O)N[C@@H](Cc3ccc(F)cc3)C(=O)N[C@H](C(=O)N[C@@H](Cc3c[nH]c4ccccc34)C(N)=O)C(C)C)(C2)NC1=O (single isomer, unassigned) [FP0576c Isomer 2, Ac-A-R8-I-L-D-A-2pyr-I-MB-4FF-V-W-NH2] | > 5000
CC[C@H](C)[C@@H]1NC(=O)[C@H](Cc2ccccn2)NC(=O)[C@H](C)NC(=O)[C@H](CC(=O)O)NC(=O)[C@H](CC(C)C)NC(=O)[C@H]([C@@H](C)CC)NC(=O)[C@](C)(NC(=O)[C@H](C)NC(C)=O)CCCCCCC=CCOC(=O)N2CC[C@@](C(=O)N[C@H](C(=O)N[C@H](C(=O)N[C@@H](Cc3c[nH]c4ccccc34)C(N)=O)C(C)C)C(C)C)(C2)NC1=O (single isomer, unassigned) [FP0562c Isomer 2, Ac-A-R8-I-L-D-A-2pyr-I-MB-V-V-W-NH2] | > 5000
CC[C@H](C)[C@@H]1NC(=O)[C@H](Cc2c[nH]cn2)NC(=O)[C@H](C)NC(=O)[C@H](CC(=O)O)NC(=O)[C@H](CC(C)C)NC(=O)[C@H]([C@@H](C)CC)NC(=O)[C@](C)(NC(=O)[C@H](C)NC(C)=O)CCCCCC=CCN2CC(C(=O)N[C@@H](CCCNC(=N)N)C(=O)N[C@H](C(=O)N[C@@H](Cc3c[nH]c4ccccc34)C(N)=O)C(C)C)(C2)NC1=O (single isomer, unassigned) [FP0516a Isomer 2, Ac-A-R7-I-L-D-A-H-I-MA-R-V-W-NH2] | 500 to 5000
CC[C@H](C)[C@@H]1NC(=O)C2(NC(=O)[C@H](CCC(N)=O)NC(=O)[C@@H]3CCCN3C(C)=O)CN(CC=CCCCC[C@](C)(C(=O)N[C@@H](Cc3c[nH]cn3)C(=O)N[C@H](C(=O)N[C@@H](CCCNC(=N)N)C(=O)N[C@@H](CCCNC(=N)N)C(=O)N[C@H](C(=O)N[C@@H](Cc3c[nH]c4ccccc34)C(=O)N[C@@H](CCCNC(=N)N)C(N)=O)C(C)C)C(C)C)NC(=O)[C@H](CC(=O)O)NC(=O)[C@H](CC(C)C)NC1=O)C2 (single isomer, unassigned) [FP0725a, Ac-P-Q-MA-I-L-D-R6-H-V-R-R-V-W-R-NH2] | 500 to 5000
CC[C@H](C)[C@@H]1NC(=O)[C@H](Cc2c[nH]cn2)NC(=O)[C@H](C)NC(=O)[C@H](CC(=O)O)NC(=O)[C@H](CC(C)C)NC(=O)[C@H]([C@@H](C)CC)NC(=O)[C@](C)(NC(=O)[C@H](C)NC(C)=O)CCCCCCC=CCOC(=O)N2CC[C@@](C(=O)N[C@@H](CCCNC(=N)N)C(=O)N[C@H](C(=O)N[C@@H](Cc3c[nH]c4ccccc34)C(N)=O)C(C)C)(C2)NC1=O (single isomer, unassigned) [FP0217c Isomer 1, Ac-AR8ILDAHIMBRVW (SEQ ID NO: 280)] | 500 to 5000
CC[C@H](C)[C@@H]1NC(=O)[C@H](Cc2ccco2)NC(=O)[C@H](C)NC(=O)[C@H](CC(=O)O)NC(=O)[C@H](CC(C)C)NC(=O)[C@H]([C@@H](C)CC)NC(=O)[C@](C)(NC(=O)[C@H](C)NC(C)=O)CCCCCCC=CCOC(=O)N2CC[C@@](C(=O)N[C@@H](CCCNC(=N)N)C(=O)N[C@H](C(=O)N[C@@H](Cc3c[nH]c4ccccc34)C(N)=O)C(C)C)(C2)NC1=O [FP0541c, Ac-A-R8-I-L-D-A-fur-I-MB-R-V-W-NH2] | > 5000
CC[C@H](C)[C@@H]1NC(=O)[C@H](Cc2c[nH]cn2)NC(=O)[C@H](C)NC(=O)[C@H](CC(=O)O)NC(=O)[C@H](CC(C)C)NC(=O)[C@H]([C@@H](C)CC)NC(=O)[C@](C)(NC(=O)[C@H](C)NC(C)=O)CN(C)CC=CCCCCCC[C@@](C)(C(=O)N[C@@H](CCCNC(=N)N)C(=O)N[C@H](C(=O)N[C@@H](Cc2c[nH]c3ccccc23)C(N)=O)C(C)C)NC1=O [FP0335a, Ac-A-ME-I-L-D-A-H-I-S8-R-V-W-NH2] (Ac-A[X10]ILDAHI[S8]RVW-NH2; staple 2-9) | 100 to 500
CC[C@H](C)[C@@H]1NC(=O)[C@H](Cc2c[nH]cn2)NC(=O)[C@H](C)NC(=O)[C@H](CC(=O)O)NC(=O)[C@H](CC(C)C)NC(=O)[C@H]([C@@H](C)CC)NC(=O)[C@](C)(NC(=O)[C@H](C)NC(C)=O)CCCCCCC=CCOC(=O)N2CC[C@@](C(=O)N[C@@H](CCCNC(=N)N(C)C)C(=O)N[C@H](C(=O)N[C@@H](Cc3c[nH]c4ccccc34)C(N)=O)C(C)C)(C2)NC1=O [FP0639c, Ac-A-R8-I-L-D-A-H-I-MB-ADMA-V-W-NH2] | < 100
CC[C@H](C)[C@@H]1NC(=O)[C@H](Cc2c[nH]cn2)NC(=O)[C@H](C)NC(=O)[C@H](CC(=O)O)NC(=O)[C@](C)(CC(C)C)NC(=O)[C@H]([C@@H](C)CC)NC(=O)[C@](C)(NC(=O)[C@H](C)NC(C)=O)CCCCCCC=CCOC(=O)N2CC[C@@](C(=O)N[C@@H](CCCNC(=N)N)C(=O)N[C@H](C(=O)N[C@@H](Cc3c[nH]c4ccccc34)C(N)=O)C(C)C)(C2)NC1=O [FP0644c, Ac-A-R8-I-aMeL-D-A-H-I-MB-R-V-W-NH2] | 100 to 500
CC[C@H](C)[C@@H]1NC(=O)[C@H](Cc2ccccn2)NC(=O)[C@H](C)NC(=O)[C@H](CC(=O)O)NC(=O)[C@H](CC(C)C)NC(=O)[C@H]([C@@H](C)CC)NC(=O)[C@](C)(NC(=O)[C@H](C)NC(C)=O)CCCCCCC=CCOC(=O)N2CC[C@@](C(=O)N[C@@H](CC3CCC3)C(=O)N[C@H](C(=O)N[C@@H](Cc3c[nH]c4ccccc34)C(N)=O)C(C)C)(C2)NC1=O (single isomer, unassigned) [FP0565c Isomer 1, Ac-A-R8-I-L-D-A-2pyr-I-MB-Cba-V-W-NH2] | > 5000
CC[C@H](C)[C@@H]1NC(=O)C2(NC(=O)[C@H](CCC(N)=O)NC(=O)[C@@H]3CCCN3C(C)=O)CN(C2)C(=O)OCC=CCC[C@](C)(C(=O)N[C@@H](Cc2c[nH]cn2)C(=O)N[C@H](C(=O)N[C@@H](CCCNC(=N)N)C(=O)N[C@@H](CCCNC(=N)N)C(=O)N[C@H](C(=O)N[C@@H](Cc2c[nH]c3ccccc23)C(=O)N[C@@H](CCCNC(=N)N)C(N)=O)C(C)C)C(C)C)NC(=O)[C@H](CC(=O)O)NC(=O)[C@H](CC(C)C)NC1=O (single isomer, unassigned) [FP0721c, Ac-P-Q-MA-I-L-D-R4-H-V-R-R-V-W-R-NH2] | 500 to 5000
CC[C@H](C)[C@@H]1NC(=O)[C@](C)(NC(=O)[C@H](CCC(N)=O)NC(=O)[C@@H]2CCCN2C(C)=O)CCCCC=CCN2CC(C(=O)N[C@@H](Cc3c[nH]cn3)C(=O)N[C@H](C(=O)N[C@@H](CCCNC(=N)N)C(=O)N[C@@H](CCCNC(=N)N)C(=O)N[C@H](C(=O)N[C@@H](Cc3c[nH]c4ccccc34)C(=O)N[C@@H](CCCNC(=N)N)C(N)=O)C(C)C)C(C)C)(C2)NC(=O)[C@H](CC(=O)O)NC(=O)[C@H](CC(C)C)NC1=O (single isomer, unassigned) [FP0735a, Ac-P-Q-R6-I-L-D-MA-H-V-R-R-V-W-R-NH2] | 500 to 5000
CC[C@H](C)[C@@H]1NC(=O)C2(NC(=O)[C@H](CCC(N)=O)NC(=O)[C@@H]3CCCN3C(C)=O)CN(C2)C(=O)OCC=CCCCCC[C@](C)(C(=O)N[C@@H](Cc2c[nH]cn2)C(=O)N[C@H](C(=O)N[C@@H](CCCNC(=N)N)C(=O)N[C@@H](CCCNC(=N)N)C(=O)N[C@H](C(=O)N[C@@H](Cc2c[nH]c3ccccc23)C(=O)N[C@@H](CCCNC(=N)N)C(N)=O)C(C)C)C(C)C)NC(=O)[C@H](CC(=O)O)NC(=O)[C@H](CC(C)C)NC1=O (single isomer, unassigned) [FP0727c, Ac-P-Q-MA-I-L-D-R7-H-V-R-R-V-W-R-NH2] | 500 to 5000

Same assay, conditions: competition with FITC labeled Axin-site probe, 15 nM full-length beta-catenin; read-out: FP EC50

SMILES | EC50 [nM]
CC[C@H](C)[C@@H]1NC(=O)[C@@](C)(NC(=O)[C@H](CCC(N)=O)NC(=O)[C@@H]2CCCN2C(C)=O)CCCCCC=CCN2CC(C(=O)N[C@@H](Cc3c[nH]cn3)C(=O)N[C@H](C(=O)N[C@@H](CCCNC(=N)N)C(=O)N[C@@H](CCCNC(=N)N)C(=O)N[C@H](C(=O)N[C@@H](Cc3c[nH]c4ccccc34)C(=O)N[C@@H](CCCNC(=N)N)C(N)=O)C(C)C)C(C)C)(C2)NC(=O)[C@H](CC(=O)O)NC(=O)[C@H](CC(C)C)NC1=O (single isomer, unassigned) [FP-0738, Ac-P-Q-S7-I-L-D-Az-H-V-R-R-V-W-R-NH2] | 200
